Converted amounts (≈) assume the structure as drawn.
Tests used:
[1] = tested on: Colinus virginianus; details: for LD50: acute, oral, mortality
[2] = tested on: Canidae; details: subchronic; duration: 90 days; oral; Dog Other; histopathology: nonneoplastic
[3] = tested on: Anas platyrhynchos; details: for LD50: oral, mortality
[4] = tested on: Rattus norvegicus
[5] = tested on: Pimephales promelas
[6] = tested on: Apis mellifera; details: acute; duration: 48 hours; dermal; mortality
[7] = tested on: Daphnia magna; details: chronic/long-term; duration: 21 days; reproduction
[8] = tested on: Tagia sp.

`CC(C)Oc1cccc(NC(=O)c2ccccc2C(F)(F)F)c1` [Flutolanil] was tested, and the LD50 ([1]; diet) was greater than 961 mg/kg-day, the LD50 [1] was greater than 2000 mg/kg-day and the NOEL ([1]; reproduction developmental) was 247 mg/kg-day. It also gave an NOAEL [2] of 80 mg/kg-day, an LD50 ([3]; acute, unspecified) greater than 2000 mg/kg-day and an NOEL ([3]; reproductive) of 267 mg/kg-day. The LD50 ([3]; short-term, feed) was 1250 mg/kg-day, the LD50 ([4]; acute, oral, mortality) was greater than 10000 mg/kg-day and the NOAEL ([4]; chronic, duration: 2 years, F, hematological) was 8.7 mg/kg-day. For the same compound, the NOAEL ([4]; chronic, duration: 2 years, M, histopathology: nonneoplastic) was 8.7 mg/kg-day, the NOAEL ([4]; reproduction developmental, organ weight) was 157 mg/kg-day and the LC50 ([5]; acute, duration: 96 hours, mortality) was 4.8 µg/mL (≈ 14.8 µM). The NOEC ([5]; chronic/long-term, duration: 30 days, growth) was 0.233 mg/L, the LD50 [6] was greater than 200 µg/piece and the NOEC [7] was 0.53 mg/L. For the same compound, the LC50 ([8]; acute, duration: 14 days, mortality) was greater than 1000 mg/kg and the NOEC ([8]; chronic/long-term, duration: 56 days) was 12.9 mg/kg.

Source: EPA's ToxValDB 9.5 (doi:10.2903/j.efsa.2008.126r)
